The values below come from paper PMC8637766, “A mixed chirality α-helix in a stapled bicyclic and a linear antimicrobial peptide revealed by X-ray crystallography” (RSC Chemical Biology, 2021).

Values after ≈ are worked out from the molar mass of the structure shown. Peptide text beside a SMILES is read from it.

The first assay concerns P. aeruginosa PAO1. The format is cell-based, Pseudomonas aeruginosa.
Conditions: not given
How it is done: (§1) Bicyclic and linear peptides cytotoxicity was assayed against P. aeruginosa PAO1, P. aeruginosa ZEM-1A, P. aeruginosa ZEM9A, K. pneumoniae Oxa-48, E. coli W3110, A. baumannii BAL225, S. aureus Newman, S. aureus COL (clinical isolate of MRSA) , B. Subtilis BR151.
(§2) To determine the Minimal Inhibitory Concentration (MIC), Broth Microdilution method was used . 2 A colony of bacteria from glycerol stock was grown in LB medium overnight at 37 °C and 180 rpm shaking. The compounds were prepared as stock solutions of 8 mg/mL in sterilized milliQ deionized water, added to the first well of 96 -well sterile, polypropylene round bottom microtiter plates (TPP, untreated) and diluted serially by ½. The concentration of the bacteria was quantified by measuring absorbance at 600 nm and diluted to an OD 600 of 0.022 in MH medium. The sample solutions (150 µL) were mixed with 4 µL diluted bacterial suspension with a final inoculation of about 5×10^5 CFU.
For each test, two columns of the plate were kept for sterility control (MH medium only), growth control (MH medium with bacterial inoculum, no compound). The positive control, Polymyxin B (starting with a concentration of 64 µg/mL) in MH medium with bacterial inoculums, was introduced in the two first lines of the plate. The plates were incubated at 37 °C for ~18 hours under static conditions. 15 μL of 3-(4,5-dimethylthiazol-2-yl)-2,5-diphenyltetrazolium bromide (MTT)3 (1 mg/mL in sterilized milliQ deionized water) were added to each well and the plates were incubated for 20-30 minutes at room temperature. The minimal inhibitory concentration (MIC) was defined as the lowest concentration of the dendrimer that inhibits the visible growth of the tested bacteria (yellow) with the unaided eye.
`Cc1c2cc3cc1CSC[C@H](NC(=O)[C@H](CCCCN)NC(=O)[C@H](CC(C)C)NC(=O)[C@H](CC(C)C)NC(=O)[C@H](CCCCN)NC(=O)[C@H](CCCCN)NC3=O)C(=O)N[C@@H](CC(C)C)C(=O)N[C@@H](CCCCN)C(=O)N[C@H](C(=O)N[C@@H](CC(C)C)C(N)=O)CSC2` [bp3] (HELM PEPTIDE1{K.K.L.L.K.C.L.K.C.L.[am]}|CHEM1{[Cc1c(C[*:2])cc(C(=O)[*:1])cc1C[*:3]]}$PEPTIDE1,CHEM1,1:R1-1:R1|PEPTIDE1,CHEM1,6:R3-1:R2|PEPTIDE1,CHEM1,9:R3-1:R3$$$V2.0): the “MIC PAO1” value is above 64 µg/mL.

A further assay relates to B. subtilis BR151. The format is cell-based, Bacillus subtilis. Particulars: BR151, 20 h. The method, then: as §1, §2
For each test, two columns of the plate were kept for sterility control (MH medium only), growth control (MH medium with bacterial inoculum, no compound). The positive control, Polymyxin B (starting with a concentration of 64 µg/mL) in MH medium with bacterial inoculums, was introduced in the two first lines of the plate. […]
conditions. 15 μL of 3-(4,5-dimethylthiazol-2-yl)-2,5-diphenyltetrazolium bromide (MTT)3 (1 mg/mL in sterilized milliQ deionized water) were added to each well and the plates were incubated for 20-30 minutes at room temperature. The minimal inhibitory concentration (MIC) was defined as the lowest concentration of the dendrimer that inhibits the visible growth of the tested bacteria (yellow) with the unaided eye.
For the compound `Cc1c2cc3cc1CSC[C@H](NC(=O)[C@H](CCCCN)NC(=O)[C@H](CC(C)C)NC(=O)[C@H](CC(C)C)NC(=O)[C@H](CCCCN)NC(=O)[C@H](CCCCN)NC3=O)C(=O)N[C@@H](CC(C)C)C(=O)N[C@@H](CCCCN)C(=O)N[C@H](C(=O)N[C@@H](CC(C)C)C(N)=O)CSC2` [bp3] (HELM PEPTIDE1{K.K.L.L.K.C.L.K.C.L.[am]}|CHEM1{[Cc1c(C[*:2])cc(C(=O)[*:1])cc1C[*:3]]}$PEPTIDE1,CHEM1,1:R1-1:R1|PEPTIDE1,CHEM1,6:R3-1:R2|PEPTIDE1,CHEM1,9:R3-1:R3$$$V2.0), the “MIC BR 151” value was found to be 4 µg/mL (≈ 3.01 µM).

As for `Cc1c2cc3cc1CSC[C@H](NC(=O)[C@H](CCCCN)NC(=O)[C@H](CCCCN)NC(=O)[C@H](CC(C)C)NC(=O)[C@H](CC(C)C)NC(=O)[C@H](CCCCN)NC3=O)C(=O)N[C@@H](CC(C)C)C(=O)N[C@@H](CCCCN)C(=O)N[C@H](C(=O)N[C@@H](CC(C)C)C(N)=O)CSC2` [bp59] (HELM PEPTIDE1{K.L.L.K.K.C.L.K.C.L.[am]}|CHEM1{[Cc1c(C[*:2])cc(C(=O)[*:1])cc1C[*:3]]}$PEPTIDE1,CHEM1,1:R1-1:R1|PEPTIDE1,CHEM1,6:R3-1:R2|PEPTIDE1,CHEM1,9:R3-1:R3$$$V2.0), the “MIC BR 151” value was found to be 4 µg/mL (≈ 3.01 µM).

Regarding `Cc1c2cc3cc1CSC[C@H](NC(=O)[C@H](CC(C)C)NC(=O)[C@H](CCCCN)NC(=O)[C@H](CC(C)C)NC(=O)[C@H](CC(C)C)NC(=O)[C@H](CCCCN)NC3=O)C(=O)N[C@@H](CCCCN)C(=O)N[C@@H](CCCCN)C(=O)N[C@H](C(=O)N[C@@H](CC(C)C)C(N)=O)CSC2` [bp60] (HELM PEPTIDE1{K.L.L.K.L.C.K.K.C.L.[am]}|CHEM1{[Cc1c(C[*:2])cc(C(=O)[*:1])cc1C[*:3]]}$PEPTIDE1,CHEM1,1:R1-1:R1|PEPTIDE1,CHEM1,6:R3-1:R2|PEPTIDE1,CHEM1,9:R3-1:R3$$$V2.0), the “MIC BR 151” value is listed as above 64 µg/mL.

Consider `Cc1c2cc3cc1CSC[C@H](NC(=O)[C@H](CC(C)C)NC(=O)[C@H](CCCCN)NC(=O)[C@H](CCCCN)NC3=O)C(=O)N[C@@H](CCCCN)C(=O)N[C@@H](CC(C)C)C(=O)N[C@H](C(=O)N[C@@H](CCCCN)C(=O)N[C@@H](CC(C)C)C(N)=O)CSC2` [bp61] (HELM PEPTIDE1{K.K.L.C.K.L.C.K.L.[am]}|CHEM1{[Cc1c(C[*:2])cc(C(=O)[*:1])cc1C[*:3]]}$PEPTIDE1,CHEM1,1:R1-1:R1|PEPTIDE1,CHEM1,4:R3-1:R2|PEPTIDE1,CHEM1,7:R3-1:R3$$$V2.0), for which the “MIC BR 151” value is above 64 µg/mL.

For the compound `Cc1c2cc3cc1CSC[C@H](NC(=O)[C@H](CC(C)C)NC(=O)[C@H](CC(C)C)NC(=O)[C@H](CC(C)C)NC(=O)[C@H](CCCCN)NC(=O)[C@H](CCCCN)NC3=O)C(=O)N[C@@H](CCCCN)C(=O)N[C@@H](CC(C)C)C(=O)N[C@H](C(=O)N[C@@H](CCCCN)C(N)=O)CSC2` [bp62] (HELM PEPTIDE1{K.K.L.L.L.C.K.L.C.K.[am]}|CHEM1{[Cc1c(C[*:2])cc(C(=O)[*:1])cc1C[*:3]]}$PEPTIDE1,CHEM1,1:R1-1:R1|PEPTIDE1,CHEM1,6:R3-1:R2|PEPTIDE1,CHEM1,9:R3-1:R3$$$V2.0), the “MIC BR 151” value is on record as 32 µg/mL (≈ 24 µM).

As to `Cc1c2cc3cc1CSC[C@H](NC(=O)[C@H](CC(C)C)NC(=O)[C@H](CCCCN)NC(=O)[C@H](CCCCN)NC3=O)C(=O)N[C@@H](CCCCN)C(=O)N[C@@H](CC(C)C)C(=O)N[C@@H](CC(C)C)C(=O)N[C@@H](CCCCN)C(=O)N[C@H](C(=O)N[C@@H](CC(C)C)C(N)=O)CSC2` [bp63] (HELM PEPTIDE1{K.K.L.C.K.L.L.K.C.L.[am]}|CHEM1{[Cc1c(C[*:2])cc(C(=O)[*:1])cc1C[*:3]]}$PEPTIDE1,CHEM1,1:R1-1:R1|PEPTIDE1,CHEM1,4:R3-1:R2|PEPTIDE1,CHEM1,9:R3-1:R3$$$V2.0), the “MIC BR 151” value stood at 4 µg/mL (≈ 3.01 µM).

As for `Cc1c2cc3cc1CSC[C@H](NC(=O)[C@H](CCCCN)NC(=O)[C@H](CC(C)C)NC(=O)[C@H](CC(C)C)NC(=O)[C@H](CCCCN)NC(=O)[C@H](CCCCN)NC3=O)C(=O)N[C@@H](CCCCN)C(=O)N[C@@H](CC(C)C)C(=O)N[C@H](C(=O)N[C@@H](CC(C)C)C(N)=O)CSC2` [bp64] (HELM PEPTIDE1{K.K.L.L.K.C.K.L.C.L.[am]}|CHEM1{[Cc1c(C[*:2])cc(C(=O)[*:1])cc1C[*:3]]}$PEPTIDE1,CHEM1,1:R1-1:R1|PEPTIDE1,CHEM1,6:R3-1:R2|PEPTIDE1,CHEM1,9:R3-1:R3$$$V2.0), the “MIC BR 151” value was 16 µg/mL (≈ 12 µM).

As for `Cc1c2cc3cc1CSC[C@H](NC(=O)[C@H](CC(C)C)NC(=O)[C@H](CCCCN)NC(=O)[C@H](CCCCN)NC3=O)C(=O)N[C@@H](CCCCN)C(=O)N[C@@H](CC(C)C)C(=O)N[C@@H](CC(C)C)C(=O)N[C@@H](CCCCN)C(=O)N[C@H](C(N)=O)CSC2` [bp66] (HELM PEPTIDE1{K.K.L.C.K.L.L.K.C.[am]}|CHEM1{[Cc1c(C[*:2])cc(C(=O)[*:1])cc1C[*:3]]}$PEPTIDE1,CHEM1,1:R1-1:R1|PEPTIDE1,CHEM1,4:R3-1:R2|PEPTIDE1,CHEM1,9:R3-1:R3$$$V2.0), the “MIC BR 151” value was above 64 µg/mL.
